Molecules are shown by their SMILES. pIC50: −log10 of the molar value. Active and inactive are the calls of the source. How the calls were made is not given here.

Results on 89 compounds are retold here after PubChem BioAssay AID2823 (Broad Institute, 2010).

The test has as its target RanGTP-importin-beta complex (human Ran / KPNB1). Description: Ran–importin-beta interaction inhibitors, confirmation, biochemical, FRET, CFP/YFP, cell-free homogeneous (AID 2823). Particulars: CFP-Ran/YFP-importin-beta FRET ratio.
Consider `COc1ccccc1Nc1c2ccccc2nc2ccccc12`, for which the IC50 is > 50 µM (inactive).

As for `CCOC(=O)c1oc2c(CN3CCN(CCO)CC3)c(O)c(CC)cc2c(=O)c1-c1nc2ccccc2s1`, the pIC50 was 4.73.

For `COc1ccc(C(CNC(=O)c2cc(F)c(F)c(F)c2F)N2CCOCC2)cc1` (centres undefined), the IC50 is > 50 µM (inactive).

For the compound `CNC(=S)Nc1ccc(C(N)=O)cc1`, the IC50 was > 50 µM (inactive).

Consider `Cc1cccc(-c2nnc(NC(=O)c3ccc(N4C(=O)CCC4=O)cc3)s2)c1`, for which the IC50 was > 50 µM (inactive).

Regarding `Cc1ccc(OCC(=O)N2CCCCCC2)c(C)c1`, the IC50 was > 50 µM (inactive).

`COc1ccc(CCNc2c3ccccc3nc3ccccc23)cc1OC`: the pIC50 was 4.90.

Turning to `O=c1[nH]c(=O)n(-c2cccc3ccccc23)c(O)c1/C=N/N1CCCCCC1`, the IC50 is > 50 µM (inactive).

On to `CCCOC(=O)CSC1=C(C#N)C(c2ccccc2OC)C(C#N)C(=O)N1` (centres undefined), for which the IC50 was > 50 µM (inactive).

For the compound `OCCNc1c2ccccc2nc2ccccc12`, the pIC50 is 5.40.

As to `Cc1ccccc1-n1c(=O)cc(N2CCC3(CC2)OCCO3)[nH]c1=O`, the IC50 is > 50 µM (inactive).

Regarding `N#Cc1c(/N=C/c2ccc(O)cc2O)sc2c1C1CCN2CC1`, the IC50 is > 50 µM (inactive).

With `Cc1c(C#N)c(NC(=O)CCl)n(Cc2ccccc2)c1C`, the IC50 is > 50 µM (inactive).

As to `Clc1ccc(-c2ncc3ccccn23)cc1`, the IC50 is > 50 µM (inactive).

Take `Cc1cnc(=O)[nH]c1SCC(=O)c1ccc(F)cc1`: the IC50 was > 50 µM (inactive).

For `O=c1cc(CN2CCN(S(=O)(=O)c3ccc4c(c3)OCCO4)CC2)c2ccc(O)cc2o1`, the pIC50 was 4.96.

With `Cc1cccc2cc(C#N)c(NCCNC(=O)COc3ccccc3)nc12`, the IC50 was > 50 µM (inactive).

On to `COc1ccc(CCn2c(=N)c(C(=O)NCC3CCCO3)cc3c(=O)n4cccc(C)c4nc32)cc1` (centres undefined), for which the pIC50 was 4.94.

Take `CCOC(=O)C1=C(N)Oc2ccc3ccccc3c2C1c1ccc(O)c(OC)c1` (centres undefined): the IC50 is > 50 µM (inactive).

Take `CCCN(CCO)Cc1cccc(Br)c1`: the IC50 was > 50 µM (inactive).

Consider `Cc1ccc(C(=O)NCc2ccco2)cc1S(=O)(=O)N1CCOCC1`, for which the IC50 was > 50 µM (inactive).

With `CCC1(C(=O)OC)NC(c2cccc(F)c2)C2C(=O)N(C)C(=O)C21` (centres undefined), the IC50 was > 50 µM (inactive).

Regarding `CCOc1ccccc1NC1=CC(=O)CC(c2ccccc2)C1` (centres undefined), the IC50 is > 50 µM (inactive).

As for `CCN1C(=S)SC(=O)C1=C1C=C(C)N(Cc2ccco2)C(C)=C1`, the pIC50 is 4.95.

As for `COc1ccc(-n2c(N)c(C(=O)NCc3ccco3)c3nc4ccccc4nc32)cc1OC`, the pIC50 was 4.34.

Regarding `CC(=O)N1CCC(N(CCN2CCOCC2)C(=O)Nc2ccc(Cl)c(Cl)c2)CC1`, the IC50 was > 50 µM (inactive).

Consider `CCOC(=O)c1ccc(NC(=O)CSc2nc(C)nc3c2c(=O)n(C)c(=O)n3C)cc1`, for which the IC50 was > 50 µM (inactive).

Turning to `Cc1nc2ccccc2n1CC(=O)N1CC(=O)Nc2ccccc21`, the IC50 is > 50 µM (inactive).

With `O=C(O)COc1ccc(F)cc1Br`, the IC50 is > 50 µM (inactive).

Turning to `Cc1cc(C(=O)COC(=O)c2nc3nccc(C)n3n2)c(C)n1CC1CCCO1` (centres undefined), the IC50 was > 50 µM (inactive).

With `O=C(Cn1c2ccccc2c(=O)c2ccccc21)Nc1ccccc1F`, the pIC50 was 5.26.

Turning to `Oc1ccccc1/C=N/Nc1cc(N2CCCC2)nc(N2CCCC2)n1`, the IC50 is > 50 µM (inactive).

For `CC(=O)c1c(N2CCN(C)CC2)nc(=S)n(-c2cc(C)ccc2C)c1C`, the IC50 is > 50 µM (inactive).

On to `COc1ccc(CCNC(=O)c2cc3c(=O)n4cccc(C)c4nc3n(CCCN3CCOCC3)c2=N)cc1`, for which the pIC50 is 5.31.

For the compound `Nc1nc(CSc2nnnn2-c2ccc(Cl)cc2)nc(N2CCOCC2)n1`, the IC50 was > 50 µM (inactive).

Regarding `CCOc1ccc(NC(=O)CN2C(=O)COc3ccc(Cl)cc32)cc1`, the IC50 is > 50 µM (inactive).

Take `Cc1ccc(OCC(=O)NCCNC(=O)c2ccc(C)nc2)cc1`: the IC50 is > 50 µM (inactive).

On to `O=c1[nH]c2cc(Br)cnc2nc1/C=C(\O)c1ccc(F)cc1`, for which the IC50 was > 50 µM (inactive).

`CCOc1ccc(-n2c(N)c(C(=O)NCc3ccco3)c3nc4ccccc4nc32)cc1`: the pIC50 was 4.60.

As to `Clc1cccc(-c2ccc(C=Nc3ccc(N4CCOCC4)cc3)o2)c1Cl`, the IC50 is > 50 µM (inactive).

With `Oc1c(C(Nc2nc3ccccc3s2)c2ccco2)ccc2cccnc12` (centres undefined), the IC50 was > 50 µM (inactive).

For the compound `CSc1sc(C)cc1C1C(C#N)=C(N)N(c2cccnc2)C2=C1C(=O)CCC2` (centres undefined), the pIC50 is 4.32.

Turning to `COc1ccc(CNC(=O)C2CC(=O)N(C3CCCCC3)C2)cc1` (centres undefined), the IC50 was > 50 µM (inactive).

Consider `COc1ccc(S(=O)Cc2ccc(C(=O)NC3CC3)o2)cc1` (centres undefined), for which the IC50 is > 50 µM (inactive).

`O=C(Cn1c2ccccc2c(=O)c2ccccc21)N/N=C/c1ccc(N2CCCC2)c([N+](=O)[O-])c1`: the IC50 was > 50 µM (inactive).

For `CC(CC(F)(F)F)N1CCC(n2nccc2NC(=O)CCOc2ccccc2)CC1` (centres undefined), the IC50 was > 50 µM (inactive).

With `CCN1CCN(Cc2ccc(NC(=O)c3ccc(C)c(/C=C/c4cnc(Nc5cc(N6CCNCC6)nc(C)n5)cn4)c3)cc2C(F)(F)F)CC1`, the pIC50 is 4.71.

In the case of `COc1ccc(-n2cnc3cc(NCc4ccco4)ccc32)cc1`, the IC50 is > 50 µM (inactive).

On to `Cc1cc(CNC(=O)COc2ccc(F)cc2)c2ccccc2n1`, for which the IC50 is > 50 µM (inactive).

Consider `O=C(CSc1nnc(-c2ccc(F)cc2)o1)Nc1ccc(S(=O)(=O)N2CCCC2)cc1`, for which the IC50 is > 50 µM (inactive).

Turning to `COc1ccc(C2NC(=S)NC3=C2CCCC3=C2SCCS2)cc1` (centres undefined), the IC50 is > 50 µM (inactive).

Regarding `Cc1ccc2cc(CN(CC3CCCO3)C(=S)Nc3ccccc3)c(=O)[nH]c2c1C` (centres undefined), the IC50 is > 50 µM (inactive).

`Cc1cc(Nc2ccccc2)nn1C(=O)c1ccccc1`: the IC50 is > 50 µM (inactive).

For the compound `COc1cc(/C=N/NC(=O)c2cc(C)oc2C)ccc1O`, the IC50 is > 50 µM (inactive).

On to `CCOC(=O)N1CCN(/C=C(\C#N)c2nc3ccccc3s2)CC1`, for which the IC50 was > 50 µM (inactive).

On to `Cc1ccc(Cl)cc1N1C(=O)CC(Sc2ncccn2)C1=O` (centres undefined), for which the IC50 was > 50 µM (inactive).

Take `Cn1c(SCc2ccccc2F)nnc1-c1ccccn1`: the IC50 is > 50 µM (inactive).

For `CCOC(=O)CNC(=O)C1CCCN(c2ncccn2)C1` (centres undefined), the IC50 is > 50 µM (inactive).

`CC(C)(C)n1cnc2cc(NCc3ccc(Br)cc3)ccc21`: the IC50 was > 50 µM (inactive).

With `CCCCc1cc(=O)oc2c(C)c(OCC(=O)NCc3ccccn3)ccc12`, the IC50 was > 50 µM (inactive).

As to `Cc1nc2ccc(NC(=O)c3nn(CC(C)C)c(=O)c4ccccc34)cc2s1`, the IC50 was > 50 µM (inactive).

As for `Cc1ccc(C(=O)NNc2c3ccccc3nc3ccccc23)cc1`, the IC50 was > 50 µM (inactive).

In the case of `Cc1ccc(S(=O)(=O)/C(C#N)=C/c2c(N3CCC(C(N)=O)CC3)nc3ccccn3c2=O)cc1`, the IC50 was > 50 µM (inactive).

Turning to `N#Cc1ccccc1NC(=O)C1CC(=O)N(c2ccc3c4c(cccc24)CC3)C1` (centres undefined), the IC50 is > 50 µM (inactive).

`CCc1nc(N)c(C#N)c(-c2ccc(F)cc2)c1C`: the IC50 is > 50 µM (inactive).

`Cc1cccc(CN2CCc3c(OCC(=O)N4CCCc5ccccc54)cccc3C2=O)c1`: the IC50 was > 50 µM (inactive).

Consider `CCCCc1cc(=O)oc2c(CN3CCCC3)c(O)c(Cl)cc12`, for which the pIC50 was 4.64.

For `CCCn1c(=N)c(C(=O)NCc2ccc3c(c2)OCO3)cc2c(=O)n3cccc(C)c3nc21`, the pIC50 is 4.99.

In the case of `CCN(CC)CCCNC(=S)N(Cc1cccs1)Cc1cc2cc3c(cc2[nH]c1=O)OCCO3`, the IC50 was > 50 µM (inactive).

For `Cc1c(CCC(=O)NC2CC2)c(=O)oc2c(C)c(O)ccc12`, the negative logarithm of the IC50 (pIC50) is 4.68.

Regarding `CC(C)n1c(O)c(C2c3cc(Cl)ccc3Oc3[nH]c(=O)n(C(C)C)c(=O)c32)c(=O)[nH]c1=O` (centres undefined), the IC50 is > 50 µM (inactive).

In the case of `COc1ccc(CCNC(=O)c2cc3c(=O)n4ccccc4nc3n(CCCN3CCOCC3)c2=N)cc1`, the pIC50 was 4.75.

Regarding `O=C(Cc1n[nH]c(=O)c2ccccc12)NCc1ccccn1`, the IC50 was > 50 µM (inactive).

In the case of `N#C/C(=C(/O)CSc1ccccn1)c1nc2ccccc2s1`, the IC50 was > 50 µM (inactive).

As to `Cc1ccccc1/C=N/Nc1ccnc2cc(Cl)ccc12`, the IC50 was > 50 µM (inactive).

As to `N#C/C(=C\N1CCN(Cc2ccc3c(c2)OCO3)CC1)c1nc2ccccc2s1`, the IC50 is > 50 µM (inactive).

Turning to `N#C/C(=C/c1cn(CC(=O)O)c2ccccc12)C(=O)NCc1ccccc1`, the IC50 was > 50 µM (inactive).

On to `Cc1ccc(OCC(=O)NNc2c3ccccc3nc3ccccc23)cc1`, for which the IC50 was > 50 µM (inactive).

Regarding `Cc1cc(Cl)c(S(=O)(=O)N2CCCC2)cc1OCC(=O)NC1CCCCC1`, the IC50 was > 50 µM (inactive).

`Fc1ccccc1N1CC(c2ccccc2)C(c2cccs2)=N1` (centres undefined): the pIC50 was 4.68.

`CC(C)(C)Nc1nc(SCC(=O)Nc2ccccc2)nc(N2CCOCC2)n1`: the IC50 is > 50 µM (inactive).

Take `CC(C)SCC(=O)Nc1ncc2c(n1)-c1ccccc1CC2`: the pIC50 is 5.00.

Consider `Cc1ccc(Cl)cc1-n1c(=O)cc(N2CC(C)OC(C)C2)[nH]c1=O` (centres undefined), for which the IC50 was > 50 µM (inactive).

In the case of `N=C(N)SCc1nc2ccccc2c(=O)n1-c1ccccc1Cl`, the IC50 was > 50 µM (inactive).

On to `CC1(C)CC(=O)C=C(Nc2ccccc2O)C1`, for which the IC50 is > 50 µM (inactive).

For `C[C@H](O)c1[nH]c2cc(F)ccc2c1[C@H](C)O`, the IC50 is > 50 µM (inactive).

Turning to `COc1ccc(C(=O)/C=C/Nc2cccc(C)n2)cc1OC`, the pIC50 is 4.64.

Turning to `CC(NC(=O)/C(C#N)=C/c1ccc(N2CCOCC2)cc1)c1ccccc1` (centres undefined), the pIC50 was 4.70.

Regarding `Clc1ccc(/C=C\c2nccc3c2[nH]c2ccccc23)cc1`, the IC50 is > 50 µM (inactive).

As usually defined, the IC50 is the concentration needed to halve the response being measured. A word on the pIC50: it is the IC50 on a negative log10 scale, so that one unit is a factor of ten.
